The record followed here is patent publication US9428507B2, “Compounds for the treatment of malaria” (The Broad Institute, Inc., priority 2013, dated 2016).

pEC50: −log10 of the molar value.

The test has as its system Dd2 strain of P. falciparum. Nature of the test: Activity against the Dd2 strain of P. falciparum (SYBR Green I, 72-h incubation). It is filed as cell-based. The conditions noted are these: read-out: EC^50 Dd2. The essentials: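 Dd2 parasites at 1% parasitemia and 1.0% hematocrit in albumax II screening medium, 72 h at 37° C under 93% N2/4% CO2/3% O2; final DMSO 0.125%. Growth read as SYBR Green I fluorescence (485/530 nm) after lysis and 24 h staining. 20 μM mefloquine defined background, DMSO baseline.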
With “Mixture of (1R,3′R) and (1R,3′S)-2-acetyl-1- (((tert-butyldimethylsilyl) oxy)methyl)-N- (2-fluorophenyl)-7-methoxy- 1,2,3,9-tetrahydrospiro [pyrido[3,4-b]indole- 4,3′-pyrrolidine]-1′- carboxamide compound with (1R,3′S)- 2-acetyl-1- (((tert-butyldimethylsilyl) oxy)methyl)-N-(2- fluorophenyl)-7-methoxy- 1,2,3,9- tetrahydrospiro[pyrido [3,4-b]indole-4-3′- pyrrolidine]-1′- carboxamide (1:1) [Compound 75]”, the pEC50 was 5.49.
Consider “Mixture of (1R,3′R) and (1R,3′S)-tert-butyl 2-acetyl-1-(((tert- butyldimethylsilyl)oxy) methyl)-7-methoxy- 1,2,3,9- tetrahydrospiro [pyrido[3,4-b]indole- 4,3′-pyrrolidine]-1′- carboxylate compound with (1R,3′S)-tert-butyl 2-acetyl-1- (((tert-butyldimethylsilyl) oxy)methyl)-7- methyoxy-1,2,3,9- tetrahydrospiro[pyrido [3,4-b]indole-4,3′- pyrrolidine]-1′- carboxylate (1:1) [Compound 76]”, for which the pEC50 was 5.83.
The value for “Mixture of (1R,3′R) and (1R,3′s)-2-acetyl-N-(2- fluorophenyl)-1- (hydroxymethyl)-7- methoxy-1,2,3,9- tetrahydrospiro[pyrido [3,4-b]indole-4,3′- pyrrolidine]-1′- carboxamide compound with (1R,3′S)-2- acetyl-N-(2- fluorophenyl)-1- (hydroxymethyl)-7- methoxy- 1,2,3,9-tetrahydrospiro [pyrido[3,4-b] indole-4,3′-pyrrolidine]- 1′-carboxamide (1:1) [Compound 72]” was 4.78.
